Columns and labels:
[1] = system: Molt4; test: Cytotoxicity (MTT / trypan blue) in Molt4 cells; type: cell-based; conditions: Homo sapiens, MOLT-4, read-out: Cytotoxicity IC 50 in μM (Cell lines) Molt4
Protocol: Human cancer cell lines, K562, MCF7, HeLa and HEK 293T were purchased from National Centre for Cell Science, Pune, India. Cells were grown in RPMI 1640/MEM/DMEM supplemented with 10% heat-inactivated fetal bovine serum (FBS), 100 U/mL of Penicillin, and 100 μg of streptomycin/mL and incubated at 37° C. in a humidified atmosphere containing 5% CO2.
Nalm6, Molt4 and Reh cells were provided by Dr. Sathees C. Raghavan, Department of Biochemistry, IISc, Bangalore. The cells were grown under the similar culture conditions as mentioned above.
The human T cell leukemia cell line Molt4, Human acute lymphoblastic leukemia (ALL) cell line Nalm6, Human acute myelocytic leukemia (AML) cell line Reh, chronic myelogenous leukemia (CML) cell line K562, Human breast adenocarcinoma cell lines like MCF7 and human kidney cell line HEK 293T (Human embryonic kidney cell line) were selected for the purpose of preliminary anticancer screening of newly synthesized compounds (ASR1 to ASR15). To check the cytotoxicity, trypan blue dye exclusion assays, MTT assay were employed as described earlier Further, Cell cycle analysis, Mitochondrial membrane potential, Annexin-V FITC staining assay were also performed in order to understand the mode of cell death after treatment with ASR6. Further, ASR6 was also tested for its ability to inhibit topoisomerase I and II activity in vitro.
Cytotoxic effect of the newly synthesized compounds against leukemic cells was assessed using 3-(4, 5-dimethyl-2-yl02, 5-diphenyl tetrazolium bromide (MTT) assay. After exposure of compound at different concentration (0.01, 0.1, 0.5, 1, 10, 50 and 100 μM) cells were harvested and transferred into 96 well plate, MTT (5 mg/ml) was added and incubate at 37° C. for 4 h and formazan crystals were dissolved by adding solubilizing agent (10% SDS and 50% dimethyl formamide) for 1 h, finally plate was read at 570 nm (Bio-Rad, USA). Results were represented as inhibition of percentage of cell proliferation in bar diagram (n=3) (FIGS. 1 A, C, E and G).
To determine the growth inhibitory activity of the drug, 0.5×10^5 cell/ml were plated in 24 well (Biofil, USA.) in 1 ml of complete medium and treated with various concentration of the compound to test, cells were stained with 0.4% trypan blue and counted on a hemocytometer after treatment with compounds at 48 and 72 h time point. Results were represented as number of viable cells/ml in bar diagram (FIGS. 1 B, D, F, and H) (n=3).

[2] = target: T1, recombinant human DNA topoisomerase IIα (Homo sapiens, UniProt P11388); test: Topoisomerase IIα DNA relaxation assay; type: biochemical; conditions: 0, 10, 25, 50 and 100 μM, supercoiled pBS-SK+ plasmid, 37° C. 30 min, dose dependent
T1 construct: purchased TopoGEN; Inc
Protocol: The topoisomerase IIα assay was performed, in a reaction mixture containing supercoiled plasmid DNA (pBS-SK+) was isolated using Gen Elute plasmid miniprep kit (Sigma Aldrich), according to manual instructions. ˜200 ng plasmid and two units of recombinant human DNA topoisomerase IIα (TopoGEN. Inc) along with the different concentrations of ASR6 (0, 10, 25, 50 and 100 μM) was added at RT for 5 min; equal amount of DMSO was used as vehicle control. Reaction was carried out at 37° C. for 30 min in a relaxation buffer 1× topo II buffer (50 mM Tris-HCl (pH 8.0), 10 mM NaCl, 10 mM MgCl2, 5 mM ATP, 0.5 mM dithiothreitol and 30 μg BSA/ml) and reactions were terminated by adding 5× stop buffer containing 5% sarkosyl, 0.0025% bromophenol blue, 25% glycerol. The DNA samples were electrophoresed on 1% agarose gel at 45 volts for 4 h with 0.5×TBE (Tris-borate-EDTA). The gels were stained for 30 min in milli Q water containing ethidium bromide (0.5 mg/ml) followed by distaining for 30 min in milli Q water and images were taken. […] VP16 (Topo II inhibitor) were used as positive control (FIG. 6).

[3] = target: T2, recombinant human DNA topoisomerase I (Homo sapiens, UniProt P11387); test: Topoisomerase I DNA relaxation assay; type: biochemical; conditions: 0, 10, 25, 50 and 100 μM, supercoiled pBS-SK+ plasmid, 37° C. 30 min
T2 construct: purchased TopoGEN; Inc
T2 sequence (P11387 1-765): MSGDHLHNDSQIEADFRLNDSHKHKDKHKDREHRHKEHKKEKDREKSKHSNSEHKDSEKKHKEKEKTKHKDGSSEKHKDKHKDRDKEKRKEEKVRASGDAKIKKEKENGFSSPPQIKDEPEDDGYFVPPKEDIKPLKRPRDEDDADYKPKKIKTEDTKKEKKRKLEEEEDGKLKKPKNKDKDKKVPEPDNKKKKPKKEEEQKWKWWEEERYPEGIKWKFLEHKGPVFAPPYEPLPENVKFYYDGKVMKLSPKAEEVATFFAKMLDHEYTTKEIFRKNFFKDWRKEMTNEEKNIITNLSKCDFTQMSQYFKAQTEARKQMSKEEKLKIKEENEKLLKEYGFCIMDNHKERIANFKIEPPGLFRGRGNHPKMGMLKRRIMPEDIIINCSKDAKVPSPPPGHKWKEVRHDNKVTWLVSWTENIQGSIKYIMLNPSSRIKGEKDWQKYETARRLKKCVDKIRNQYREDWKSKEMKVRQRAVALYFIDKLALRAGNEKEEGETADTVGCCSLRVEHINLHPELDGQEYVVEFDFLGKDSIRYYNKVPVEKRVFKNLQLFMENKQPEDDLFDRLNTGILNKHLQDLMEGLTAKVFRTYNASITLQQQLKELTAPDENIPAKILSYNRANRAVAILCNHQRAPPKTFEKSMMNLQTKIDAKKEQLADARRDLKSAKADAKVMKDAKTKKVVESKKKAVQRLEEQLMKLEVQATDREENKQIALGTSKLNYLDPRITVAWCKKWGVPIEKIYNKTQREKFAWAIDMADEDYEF
Protocol: In order to determine the ability of ASR6 of topoisomerase I activity assay was performed, in a reaction mixture containing supercoiled plasmid DNA (pBS-SK+) was isolated using Gen Elute plasmid miniprep kit (Sigma Aldrich), according to manual instructions. ˜200 ng plasmid and two units of recombinant human DNA topoisomerase I (TopoGEN. Inc) along with the different concentrations of ASR6 (0, 10, 25, 50 and 100 μM) was added at RT for 5 min; equal amount of DMSO was used as vehicle control. Reaction was carried out at 37° C. for 30 min in a relaxation buffer 1× topoI buffer (50 mM Tris-HCl (pH 8.0), 10 mM NaCl, 10 mM MgCl2, 5 mM ATP, 0.5 mM dithiothreitol and 30 μg BSA/ml) and reactions were terminated by adding 5× stop buffer containing 5% sarkosyl, 0.0025% bromophenol blue, 25% glycerol. The DNA samples were electrophoresed on 1% agarose gel at 45 volts for 4 h with 0.5×TBE (Tris-borate-EDTA). The gels were stained for 30 min in milli Q water containing ethidium bromide (0.5 mg/ml) followed by distaining for 30 min in milli Q water and images were taken (FIG. 5). […] Topotecan (Topo I inhibitor) was used as positive control for topoisomerase I.

T1 sequence (P11388 whole entry): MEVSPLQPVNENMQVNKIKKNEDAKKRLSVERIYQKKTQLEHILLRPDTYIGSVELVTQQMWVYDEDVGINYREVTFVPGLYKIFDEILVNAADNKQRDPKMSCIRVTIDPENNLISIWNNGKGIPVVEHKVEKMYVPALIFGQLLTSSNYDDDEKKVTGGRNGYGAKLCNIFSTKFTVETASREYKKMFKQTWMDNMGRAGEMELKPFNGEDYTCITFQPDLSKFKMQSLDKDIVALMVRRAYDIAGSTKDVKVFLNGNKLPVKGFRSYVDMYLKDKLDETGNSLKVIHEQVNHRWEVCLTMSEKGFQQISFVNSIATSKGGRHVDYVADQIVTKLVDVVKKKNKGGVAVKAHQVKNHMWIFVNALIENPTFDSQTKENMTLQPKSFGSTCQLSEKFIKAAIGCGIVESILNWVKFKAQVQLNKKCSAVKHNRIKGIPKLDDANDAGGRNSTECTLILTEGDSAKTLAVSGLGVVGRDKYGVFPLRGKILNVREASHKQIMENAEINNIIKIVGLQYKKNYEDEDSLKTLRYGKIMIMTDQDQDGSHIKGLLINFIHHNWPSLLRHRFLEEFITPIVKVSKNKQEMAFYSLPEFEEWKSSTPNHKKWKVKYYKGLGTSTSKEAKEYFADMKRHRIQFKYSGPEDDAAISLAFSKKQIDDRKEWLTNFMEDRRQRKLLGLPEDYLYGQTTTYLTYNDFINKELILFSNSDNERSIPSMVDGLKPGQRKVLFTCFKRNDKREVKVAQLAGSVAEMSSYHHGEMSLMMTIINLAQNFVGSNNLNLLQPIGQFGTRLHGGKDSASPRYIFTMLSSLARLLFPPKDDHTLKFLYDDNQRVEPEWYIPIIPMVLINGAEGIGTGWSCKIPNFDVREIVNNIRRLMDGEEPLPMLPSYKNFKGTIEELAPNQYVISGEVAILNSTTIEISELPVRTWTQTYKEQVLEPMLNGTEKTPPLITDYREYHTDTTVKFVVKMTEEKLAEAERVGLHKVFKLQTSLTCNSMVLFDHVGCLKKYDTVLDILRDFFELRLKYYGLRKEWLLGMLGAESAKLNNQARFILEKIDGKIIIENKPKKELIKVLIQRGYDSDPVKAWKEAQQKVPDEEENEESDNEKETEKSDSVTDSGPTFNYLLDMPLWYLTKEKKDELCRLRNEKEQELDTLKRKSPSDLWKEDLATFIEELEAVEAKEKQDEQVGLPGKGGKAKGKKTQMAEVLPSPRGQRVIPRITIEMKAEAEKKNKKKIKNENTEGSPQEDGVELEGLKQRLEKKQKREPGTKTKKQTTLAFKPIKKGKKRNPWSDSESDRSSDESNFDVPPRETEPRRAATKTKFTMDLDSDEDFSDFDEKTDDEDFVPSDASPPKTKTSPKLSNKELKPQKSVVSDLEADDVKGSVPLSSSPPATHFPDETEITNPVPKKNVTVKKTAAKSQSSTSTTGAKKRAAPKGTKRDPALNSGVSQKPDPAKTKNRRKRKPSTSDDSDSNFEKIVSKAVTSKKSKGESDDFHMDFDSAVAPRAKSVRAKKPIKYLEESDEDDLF

SMILES: CCOC(=O)c1[nH]c(-c2ccc(Cl)cc2)cc1-c1cccnc1 [ASR6, Ethyl 5-(4-chlorophenyl)-3-(pyridin-3-yl)-1H-pyrrole-2-carboxylate]
- IC50 [1]: 0.195 µM
- Inhibition of topoisomerase IIα activity (DNA relaxation) [2]: can inhibit topoisomerase Ha enzymatic activity
- Inhibition of topoisomerase I activity (DNA relaxation) [3]: does not inhibit topoisomerase I activity
